Entries after “also recorded” stand apart in the source; their conditions may differ.

The target in data set [1] is T1, CB1 receptor (Mus musculus, UniProt P47746). As to the kind of experiment: Augmentation of CP 55,940 antinociception in the tail withdrawal test. Type of data set: in vivo. The note with it: 40 mg/kg.
Data set [2] has as its target T1, CB1 receptor. The note with it: for activity in the tetrad or psychoactive effects: see Supporting Information.
Data set [3] deals with T2, CB1 receptor (Homo sapiens, UniProt P21554). As to the kind of experiment: cell-based. The note with it: read-out: Emax PAM, maximum EC20 CP 55,940-induced β-arrestin recruitment relative to maximum achievable with CP 55,940. (In general: Activated receptors often draw arrestin, which recruitment assays turn into a signal.)
For data set [4], the target named is T2, CB1 receptor. The format is cell-based. The conditions noted are these: for CB1 PAM activity (in words): enhancement of CP 55,940-induced β-arrestin recruitment; for enhancement of CP 55,940-induced β-arrestin recruitment: at 300 nM.
For data set [5], the target named is T2, CB1 receptor. The format is binding. The conditions noted are these: 1 μM compound; for % enhancement of [3H]CP 55,940 binding: three independent experiments.
Data set [6] addresses T2, CB1 receptor. The format is cell-based. The note with it: compound alone; relative to maximum achievable with CP 55,940.
The next data set is described as follows: in vitro. The note with it: rat, rat liver microsomes. A general note: Microsomes from liver hold many membrane-bound enzymes, among them those of drug oxidation.
A short description of data set [7]: Mouse liver microsomal stability. Type of data set: in vitro ADME. The note with it: mouse liver microsomes.
The subject of data set [8] is mouse chronic constrictive injury of the sciatic nerve (CCI) model of neuropathic pain. The note with it: 40 mg/kg; cited from earlier work.
For data set [9] the following is noted: compared to nearest nitro analogue.

T1 sequence (P47746 whole entry): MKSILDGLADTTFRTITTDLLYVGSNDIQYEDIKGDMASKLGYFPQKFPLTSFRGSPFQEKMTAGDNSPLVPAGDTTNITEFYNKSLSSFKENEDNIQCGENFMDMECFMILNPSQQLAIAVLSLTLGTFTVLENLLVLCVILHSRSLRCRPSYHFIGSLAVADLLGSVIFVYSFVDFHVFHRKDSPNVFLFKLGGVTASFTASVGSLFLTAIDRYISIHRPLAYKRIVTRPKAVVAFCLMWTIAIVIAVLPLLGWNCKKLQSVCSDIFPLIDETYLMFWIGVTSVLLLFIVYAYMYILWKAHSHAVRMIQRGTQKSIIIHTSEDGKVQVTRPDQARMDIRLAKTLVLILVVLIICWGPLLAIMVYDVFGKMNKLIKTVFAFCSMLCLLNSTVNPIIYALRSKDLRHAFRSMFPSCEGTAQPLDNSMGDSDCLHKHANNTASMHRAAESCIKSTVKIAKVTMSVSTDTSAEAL
T2 sequence (P21554 whole entry): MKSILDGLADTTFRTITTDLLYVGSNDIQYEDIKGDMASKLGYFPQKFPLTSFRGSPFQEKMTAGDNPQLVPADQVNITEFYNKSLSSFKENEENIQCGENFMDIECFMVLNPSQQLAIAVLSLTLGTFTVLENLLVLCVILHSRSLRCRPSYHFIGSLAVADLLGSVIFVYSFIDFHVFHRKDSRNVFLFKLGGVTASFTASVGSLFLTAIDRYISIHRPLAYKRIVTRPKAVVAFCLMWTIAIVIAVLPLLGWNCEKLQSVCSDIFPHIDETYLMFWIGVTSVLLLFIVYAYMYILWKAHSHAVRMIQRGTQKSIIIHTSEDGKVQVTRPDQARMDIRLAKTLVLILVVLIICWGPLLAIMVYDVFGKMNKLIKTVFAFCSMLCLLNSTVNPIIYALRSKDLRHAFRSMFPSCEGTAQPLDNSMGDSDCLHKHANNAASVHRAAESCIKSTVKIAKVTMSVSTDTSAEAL

The Emax is the maximal effect, on the per cent scale that the assay sets. As to `N#Cc1ccc2c(C(CC(F)(F)F)c3cccs3)c(-c3ccccc3)[nH]c2c1` (racemic) [(±)-1, 2-Phenyl-3-(3,3,3-trifluoro-1-(thiophen-2-yl)propyl)-1H-indole-6-carbonitrile], the “shift of dose–response relationship of CP 55,940 in producing antinociception” value on CB1 receptor [1] was “significant leftward shifts”. In addition, on CB1 receptor [2] (40 mg/kg, administered alone), the “antinociception in the tail withdrawal test” value is recorded as “did not produce antinociception”; the hypothermia result is “did not produce hypothermia”; the “immobility in the catalepsy bar test” value is listed as “did not produce hypothermia or cause immobility in the catalepsy bar test”; the “locomotor behavior (distance traveled, immobility time)” value is listed as “did not affect either the distance traveled or immobility time”. In addition, the “pharmacological effects in the tetrad assay” value at CB1 receptor [2] (40 mg/kg, administered alone) is given as “did not elicit pharmacological effects”. At CB1 receptor [2], the “activity in the tetrad or psychoactive effects” value is “neither ZCZ011 or (±)-1 showed any activity in the tetrad or psychoactive effects”. Moreover, the Emax at CB1 receptor [3] was 100 ± 25%.
Take `N#Cc1ccc2c(C(C[N+](=O)[O-])c3cccs3)c(-c3ccccc3)[nH]c2c1` (racemic) [(±)-8]: the “CB1 PAM activity (in words)” value on CB1 receptor [4] was “moderately potent and efficacious CB1 PAMs”.
With `N#Cc1ccc2c(C(C[N+](=O)[O-])c3cccs3)c(-c3ccccc3)[nH]c2c1` (single isomer, unassigned; (+)) [(+)-8], on CB1 receptor [4], the “CB1 PAM activity (in words)” value is reported as “effectively pure PAMs”. Further, on CB1 receptor [5], the “enhancement in binding of [3H]CP 55,940 (in words)” value (“enhancement in binding” below) was “no enhancement”. In addition, the “Emax Ago” value at CB1 receptor [6] is recorded as 6%.
In the case of `N#Cc1ccc2c(C(C[N+](=O)[O-])c3cccs3)c(-c3ccccc3)[nH]c2c1` (single isomer, unassigned; (-)) [(−)-8], the “CB1 PAM activity (in words)” value at CB1 receptor [4] is “effectively pure PAMs”. The “enhancement in binding” value at CB1 receptor [5] is given as “no enhancement”.
As to `N#Cc1ccc2c([C@@H](CC(F)(F)F)c3cccs3)c(-c3ccccc3)[nH]c2c1` [(R)-(−)-1], the Emax on CB1 receptor [3] was 125 ± 29%. Besides, on CB1 receptor [5], the “enhancement in binding” value is listed as “significant enhancement” and the “% enhancement of [3H]CP 55,940 binding” value is 131.4 ± 4.3%.
`N#Cc1ccc2c([C@H](CC(F)(F)F)c3cccs3)c(-c3ccccc3)[nH]c2c1` [(S)-(+)-1]: on CB1 receptor [3], the Emax stood at 79 ± 32%. Also, on CB1 receptor [5], the “enhancement in binding” value is “significant enhancement” and the “% enhancement of [3H]CP 55,940 binding” value is 144.4 ± 3.5%.
As for `Cc1ccc2[nH]c(-c3ccccc3)c(C(C[N+](=O)[O-])c3cccs3)c2c1` (stereo not shown) [Compound 2], the “CB1 PAM activity (in words)” value at CB1 receptor [4] is recorded as “poor potency”.
Same read-out and setting: the value for `N#Cc1ccc2[nH]c(-c3ccccc3)c(C(C[N+](=O)[O-])c3cccs3)c2c1` (stereo not shown) [Compound 3] was “poor potency”; that for `O=[N+]([O-])CC(c1cccs1)c1c(-c2ccccc2)[nH]c2ccc([N+](=O)[O-])cc12` (stereo not shown) [Compound 4] was “poor potency”.
As usually defined, the half-life is the time in which the quantity being followed falls by half. High values mean slow loss, low ones fast loss. With `Cc1ccc2c(C(C[N+](=O)[O-])c3cccs3)c(-c3ccccc3)[nH]c2c1` (stereo not shown) [Compound 5, reference compound], at CB1 receptor [4], the “CB1 PAM activity (in words)” value was “moderately potent and efficacious CB1 PAMs”. Moreover, the half-life (in the data set “in vitro”; in [7]) was ≤ 10 min throughout. The “activity in the tetrad or psychoactive effects” value at CB1 receptor [2] is recorded as “neither ZCZ011 or (±)-1 showed any activity in the tetrad or psychoactive effects”. In addition, the “enhancement in binding” value on CB1 receptor [5] is “significant enhancement”. The anti-allodynic effects result in [8] is reported as “produces anti-allodynic effects”.
In the case of `O=[N+]([O-])CC(c1cccs1)c1c(-c2ccccc2)[nH]c2cc(Cl)ccc12` (stereo not shown) [Compound 6], at CB1 receptor [4], the “CB1 PAM activity (in words)” value was “moderately potent and efficacious CB1 PAMs”.
Turning to `O=[N+]([O-])CC(c1cccs1)c1c(-c2ccccc2)[nH]c2cc(C(F)(F)F)ccc12` (stereo not shown) [Compound 7], at CB1 receptor [4], the “CB1 PAM activity (in words)” value is “moderately potent and efficacious CB1 PAMs”.
As to `Cc1ccc2c(C(CC#N)c3ccccc3)c(-c3ccccc3)[nH]c2c1` (stereo not shown) [Compound 30], the “CB1 PAM activity (in words)” value on CB1 receptor [4] is on record as “modest”.
Take `N#CCC(c1ccccc1)c1c(-c2ccccc2)[nH]c2cc(Cl)ccc12` (stereo not shown) [Compound 31]: the “CB1 PAM activity (in words)” value on CB1 receptor [4] is “somewhat reduced potency and efficacy”. The “metabolic stability in rat liver microsomes (in words)” value in [9] is “similarly poor metabolic stability”.
With `Cc1ccc2c(C(c3ccccc3)C(C#N)C#N)c(-c3ccccc3)[nH]c2c1` (stereo not shown) [Compound 32], the “CB1 PAM activity (in words)” value at CB1 receptor [4] was “modest”.
In the case of `Cc1ccc2c(C(C(=O)C(F)(F)F)c3ccccc3)c(-c3ccccc3)[nH]c2c1` (stereo not shown) [Compound 38], the “enhancement of CP 55,940-induced β-arrestin recruitment” value at CB1 receptor [4] is 50–100%.
Still for that read-out and setting: the figure for `Cc1ccc2c(C(CC(F)(F)F)c3ccccc3)c(-c3ccccc3)[nH]c2c1` (stereo not shown) [Compound 39] is 50–100%.
Regarding `O=C(O)c1ccc2c(C(CC(F)(F)F)c3cccs3)c(-c3ccccc3)[nH]c2c1` (stereo not shown) [Compound 51], at CB1 receptor [4], the “CB1 PAM activity (in words)” value was “none of 6-CO2H (51), 6-CH2OH (52), 6-NHAc (53), 6-NH2 (55), or 6-NHSO2Me (56) gave active compounds; also recorded: inactive”.
For `OCc1ccc2c(C(CC(F)(F)F)c3cccs3)c(-c3ccccc3)[nH]c2c1` (stereo not shown) [Compound 52, (2-Phenyl-3-(3,3,3-trifluoro-1-(thiophen-2-yl)propyl)-1H-indol-6-yl)methanol], the “CB1 PAM activity (in words)” value on CB1 receptor [4] is listed as “none of 6-CO2H (51), 6-CH2OH (52), 6-NHAc (53), 6-NH2 (55), or 6-NHSO2Me (56) gave active compounds”.
Still for that read-out and setting: the value for `CC(=O)Nc1ccc2c(C(CC(F)(F)F)c3cccs3)c(-c3ccccc3)[nH]c2c1` (stereo not shown) [Compound 53, N-(2-Phenyl-3-(3,3,3-trifluoro-1-(thiophen-2-yl)propyl)-1H-indol-6-yl)acetamide] was “none of 6-CO2H (51), 6-CH2OH (52), 6-NHAc (53), 6-NH2 (55), or 6-NHSO2Me (56) gave active compounds”.
As to `CC(=O)c1ccc2c(C(CC(F)(F)F)c3cccs3)c(-c3ccccc3)[nH]c2c1` (stereo not shown) [Compound 54, 1-(2-Phenyl-3-(3,3,3-trifluoro-1-(thiophen-2-yl)propyl)-1H-indol-6-yl)ethan-1-one], the “CB1 PAM activity (in words)” value at CB1 receptor [4] is “potent and efficacious”.
Take `Nc1ccc2c(C(CC(F)(F)F)c3cccs3)c(-c3ccccc3)[nH]c2c1` (stereo not shown) [Compound 55, 2-Phenyl-3-(3,3,3-trifluoro-1-(thiophen-2-yl)propyl)-1H-indol-6-amine]: the “CB1 PAM activity (in words)” value on CB1 receptor [4] is “none of 6-CO2H (51), 6-CH2OH (52), 6-NHAc (53), 6-NH2 (55), or 6-NHSO2Me (56) gave active compounds”.
Consider `CS(=O)(=O)Nc1ccc2c(C(CC(F)(F)F)c3cccs3)c(-c3ccccc3)[nH]c2c1` (stereo not shown) [Compound 56, N-(2-Phenyl-3-(3,3,3-trifluoro-1-(thiophen-2-yl)propyl)-1H-indol-6-yl)methanesulfonamide], for which the “CB1 PAM activity (in words)” value at CB1 receptor [4] is reported as “none of 6-CO2H (51), 6-CH2OH (52), 6-NHAc (53), 6-NH2 (55), or 6-NHSO2Me (56) gave active compounds”.

The record behind these values is paper PMC7871173 (Journal of medicinal chemistry, 2019).
